# Data from patent publication US20190248739A1 (NEWLINK GENETICS CORPORATION, priority 2015, published 2019).
# Structures can show the parent of a compound that is named as a salt.
# Legend:
# [1] = hygroscopicity and stability of indoximod and its salts; assay type: physicochemical; details: Table 2; listed as HCl Salt; in % (unit assumed)
# [2] = pharmacokinetic testing of indoximod salts in capsule formulation in rats; assay type: in vivo; details: capsules
# Experimental: Three dose levels were investigated: 37, 185 or 500 μmol/kg.
# Capsules were manually filled and the composition uniformity of a representative sample of capsules from each batch was verified by weight and by LC-MS/MS to determine the average indoximod content.
# Rats were fasted 16 h prior to dosing to eliminate any confounding food effects, and food was returned 2 h after dosing.
# [3] = solubility of indoximod and its salts in water, buffers and SGF; assay type: physicochemical; details: 25° C.
# [4] = crossover pharmacokinetic study of indoximod free base, salts and SDD in cynomolgus monkeys; assay type: in vivo; details: for % Increase over indoximod FB (AUC) / % Increase over indoximod FB (Cmax) / AUC(0 −> 48 h) / Cmax: oral
# Experimental: The SDD suspension formulations were prepared in 0.5% methylcellulose (Methocel).
# [5] = pharmacokinetic testing of indoximod prodrugs in liquid formulation in rats; assay type: in vivo; details: oral solution, 50 mg/kg
# [6] = pharmacokinetic testing of indoximod prodrugs in liquid formulation in mice; details: mice, oral, 50 mg/kg
# Experimental: Blood samples (0.1-0.2 mL) were collected from the femoral artery port from rats or by retro-orbital bleeding from mice and plasma was immediately collected by centrifugation and stored on dry ice to avoid prodrug hydrolysis after plasma collection. […] The pharmacokinetic parameters reflect the average of individual parameter values obtained from each individual rat (n) or one common parameter from a single pharmacokinetic curve derived from blood samples obtained from a group of mice (n).
# [7] = 37 μmol/kg, listed as Indoximod hydrochloride salt
# [8] = 185 μmol/kg, listed as Indoximod hydrochloride salt
# [9] = 500 μmol/kg, listed as Indoximod hydrochloride salt
# [10] = both dose levels (275 and 825 μmol/kg)
smiles,measurement,setting,value
"Cn1cc(C[C@@H](N)C(=O)O)c2ccccc21 [indoximod HCl, (R)-1-carboxy-2-(1-methyl-1H-indol-3-yl)ethan-1-aminium chloride]",Hygroscopicity (0-80% RH),[1],0.017
same,% Increase over indoximod Free Base (AUC),[2]; 37 μmol/kg,−23%
same,% Increase over indoximod Free Base (Cmax),[2]; 37 μmol/kg,−40%
same,AUC(0 −> ∞),[2]; 37 μmol/kg,299 ± 77 µM·h
same,Cmax,[2]; 37 μmol/kg,9.5 ± 2 µM
same,% Increase over indoximod Free Base (AUC),[2]; [7],did not show a significant change
same,% Increase over indoximod Free Base (Cmax),[2]; [7],non-statistically significant decrease
same,% Increase over indoximod Free Base (AUC),[2]; 185 μmol/kg,38%
same,% Increase over indoximod Free Base (Cmax),[2]; 185 μmol/kg,84%
same,AUC(0 −> ∞),[2]; 185 μmol/kg,1493 ± 728 µM·h
same,Cmax,[2]; 185 μmol/kg,38.4 ± 10 µM
same,% Increase over indoximod Free Base (AUC),[2]; [8],significant increase
same,% Increase over indoximod Free Base (Cmax),[2]; [8],statistically significant increase
same,% Increase over indoximod Free Base (AUC),[2]; 500 μmol/kg,−6%
same,% Increase over indoximod Free Base (Cmax),[2]; 500 μmol/kg,−42%
same,AUC(0 −> ∞),[2]; 500 μmol/kg,2706 ± 847 µM·h
same,Cmax,[2]; 500 μmol/kg,44.4 ± 8 µM
same,% Increase over indoximod Free Base (AUC),[2]; [9],did not show a significant change
same,% Increase over indoximod Free Base (Cmax),[2]; [9],statistically significant decrease
same,pH of the SGF solution (in brackets),"[3]; SGF solubility test, listed as HCl Salt",1.03
same,"Solubility (25° C., mg/mL) SGF",[3]; listed as HCl Salt,> 200 mg/mL
same,"Solubility (25° C., mg/mL) SGF",[3]; listed as hydrochloride salt,> 200 mg/mL
same,pH of the water solution (in brackets),"[3]; water solubility test, listed as HCl Salt",1.06
same,"Solubility (25° C., mg/mL) Water",[3]; listed as HCl Salt,> 200 mg/mL
same,"Solubility (25° C., mg/mL) Water",[3]; listed as hydrochloride salt,> 200 mg/mL
same,increase in Cmax compared to indoximod free base capsules,[4]; [10],31-65%
same,increase in exposure compared to indoximod free base capsules,[4]; [10],37-53%
same,% Increase over indoximod FB (AUC),[4]; 275 μmol/kg,53%
same,% Increase over indoximod FB (Cmax),[4]; 275 μmol/kg,65%
same,AUC(0 −> 48 h),[4]; 275 μmol/kg,101 ± 18 µM·h
same,Cmax,[4]; 275 μmol/kg,21.3 ± 8.9 µM
same,% Increase over indoximod FB (AUC),[4]; 825 μmol/kg,37%
same,% Increase over indoximod FB (Cmax),[4]; 825 μmol/kg,31%
same,AUC(0 −> 48 h),[4]; 825 μmol/kg,173 ± 75 µM·h
same,Cmax,[4]; 825 μmol/kg,33.4 ± 12 µM
"CC(C)OC(=O)[C@H](N)Cc1cn(C)c2ccccc12 [NLG-1284, isopropyl 1-methyl-D-tryptophanate hydrochloride]",change in indoximod AUC versus indoximod,[5],does not produce a significant increase
same,change in indoximod Cmax versus indoximod,[5],does not produce a significant increase
same,change in indoximod AUC versus indoximod,[6],significant increase
same,change in indoximod Cmax versus indoximod,[6],significant increase
"CCOC(=O)[C@H](N)Cc1cn(C)c2ccccc12 [NLG-1283, ethyl 1-methyl-D-tryptophanate hydrochloride]",change in indoximod AUC versus indoximod,[5],increase
same,change in indoximod Cmax versus indoximod,[5],increase
same,change in indoximod AUC versus indoximod,[6],decrease
same,change in indoximod Cmax versus indoximod,[6],decrease
